Among the data in patent US7605168B2 (Plexxikon, Inc., priority 2004, dated 2009) are IC50 and inhibition in vivo values, retold here.

Experiment [1] concerns the target T1, PDE4B2: full-length human PDE4B2 isozyme (Homo sapiens, UniProt Q07343).
T1 construct: made in house; host or cells: baculovirus infected insect cells (pFastBacHT)
Kind of experiment: PDE4 IC50 determination by Scintillation Proximity Assay (SPA), full-length PDE4B2. In kind it is biochemical. The note with it: cell lysate, [3H]cAMP SPA. An outline of the steps:
(§1)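 Unpurified enzyme from cell lysates (PDE4B2 2.5 μl, PDE4D5 0.083 μl of 50% glycerol stock/ml) hydrolysing [3H]cAMP in 50 mM Tris pH 7.5, 8.3 mM MgCl, 1.7 mM EGTA, 0.01% BSA, 30 min at 30 °C. Stopped with yttrium silicate SPA beads in 18 mM ZnSO4; bead-bound [3H]AMP counted. IC50 by non-linear regression.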

The target in experiment [2] is T2, PDE4D5: full-length human PDE4D5 isozyme (Homo sapiens, UniProt Q08499).
T2 construct: made in house; host or cells: baculovirus infected insect cells (pFastBacHT)
T2 sequence (Q08499 with tags, fused parts or gaps isoform Q08499-6): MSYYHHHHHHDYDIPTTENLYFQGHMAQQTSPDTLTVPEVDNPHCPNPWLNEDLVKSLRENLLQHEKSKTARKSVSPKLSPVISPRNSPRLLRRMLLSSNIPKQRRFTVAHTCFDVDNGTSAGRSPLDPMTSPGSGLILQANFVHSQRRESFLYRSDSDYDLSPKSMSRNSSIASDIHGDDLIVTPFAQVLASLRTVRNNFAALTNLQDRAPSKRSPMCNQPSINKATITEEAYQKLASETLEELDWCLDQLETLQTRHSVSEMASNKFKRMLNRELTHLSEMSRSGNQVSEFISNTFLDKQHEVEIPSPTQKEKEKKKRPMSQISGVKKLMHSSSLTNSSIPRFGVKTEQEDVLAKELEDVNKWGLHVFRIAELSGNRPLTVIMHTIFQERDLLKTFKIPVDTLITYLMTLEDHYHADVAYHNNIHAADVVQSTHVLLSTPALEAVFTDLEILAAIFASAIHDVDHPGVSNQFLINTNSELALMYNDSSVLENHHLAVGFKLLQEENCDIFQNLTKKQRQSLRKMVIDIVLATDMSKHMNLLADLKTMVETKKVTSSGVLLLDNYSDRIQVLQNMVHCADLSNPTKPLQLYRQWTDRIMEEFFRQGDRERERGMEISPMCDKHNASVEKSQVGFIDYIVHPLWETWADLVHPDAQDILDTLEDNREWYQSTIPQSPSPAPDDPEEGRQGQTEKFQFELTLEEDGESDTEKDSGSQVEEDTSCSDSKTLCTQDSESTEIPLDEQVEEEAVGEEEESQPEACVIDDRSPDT
Nature of the experiment: PDE4 IC50 determination by Scintillation Proximity Assay (SPA), full-length PDE4D5. Type of experiment: biochemical. To be noted: cell lysate, [3H]cAMP SPA. The method in brief:
as §1

Experiment [3] concerns TNFα levels in serum of LPS-challenged rats. Nature of the experiment: Rat inhibition studies: serum TNFα after iv LPS challenge. In kind it is in vivo. The note with it: LPS 0.1 mg/kg iv 2 h after dosing, percent decrease in serum TNFα versus vehicle, read-out: % inhibition r TNFα; for inhibition in vivo at 5 mg/kg: 5 mg/kg po. Here is the method:
All studies were done with male rats CD (SD) IGS BR (Crl) (Charles River, France), which were grouped in to 5 animal groups.
At the end of the acclimatization period, the non-fasted rats were weighed, individually identified on the tail with a permanent marker and administered by oral (po) or interperitoneal (ip) route with either vehicle, reference or test compound in a volume of 10 mL/kg adapted to the body weight. The animals were gathered in groups of 5 animals in a polystyrene labeled cage with sawdust covered floors. 2-hours after vehicle, reference or test substance administration, rats received an intravenous (iv) injection of 0.1 mg/kg LPS in a volume of 1 mL/kg of body weight. 2 h after LPS challenge (or as indicated in Tables 3B and 4B), blood samples were collected into tubes without anticoagulant by retro-orbital puncture under gas (isoflurane) anesthesia. Samples were allowed to clot at room temperature for 5 to 10 min then put on ice until there were prepared by centrifugation (6000×g for 3 min at 4° C.) and stored at −20° C. until use. TNFα levels were measured in serum samples in duplicate by ELISA technique according to the manufacturer's procedure (Rat TNFα kit Quantikine M (RTA00, R&D System, France)). Data are reported as percent decrease in observed TNFα levels versus TNFα levels observed for vehicle dosed animal groups.

Experiment [4] deals with T3, PDE4B: catalytic domain of human PDE4B from S152-S528 (Homo sapiens, UniProt Q07343).
T3 construct: The catalytic domain of human PDE4B from S152-S528; His6 (N, cleaved yes); thrombin cleavage site (N, cleaved yes); made in house; host or cells: E. coli BL21 (DE3) RIL
T3 sequence (Q07343 324-700): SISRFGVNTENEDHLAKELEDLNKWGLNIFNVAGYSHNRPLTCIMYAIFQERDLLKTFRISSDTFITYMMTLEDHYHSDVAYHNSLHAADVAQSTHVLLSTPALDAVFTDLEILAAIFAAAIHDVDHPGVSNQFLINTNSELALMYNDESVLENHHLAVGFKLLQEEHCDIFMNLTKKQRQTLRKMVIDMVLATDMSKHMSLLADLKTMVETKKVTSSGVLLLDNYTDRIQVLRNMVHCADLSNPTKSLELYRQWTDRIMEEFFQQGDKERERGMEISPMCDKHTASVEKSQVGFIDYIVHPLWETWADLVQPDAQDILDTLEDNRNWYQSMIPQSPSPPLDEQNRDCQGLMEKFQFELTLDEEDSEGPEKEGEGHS
Kind of experiment: PDE4 IC50 determination by Scintillation Proximity Assay (SPA), PDE4B catalytic domain. In kind it is biochemical. To be noted: [3H]cAMP SPA, 30 min at 30° C. An outline of the steps:
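Human PDE4B catalytic domain (80 ng/ml) hydrolysed [3H]cAMP in 50 mM Tris pH 7.5, 8.3 mM MgCl, 1.7 mM EGTA, 0.01% BSA for 30 min at 30 °C. Reaction was stopped with yttrium silicate SPA beads in 18 mM ZnSO4, and bound [3H]AMP was counted by scintillation. IC50 came from non-linear regression.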

For experiment [5], the system named is TNF-α release from whole blood cultures stimulated with LPS. Kind of experiment: IC50 by TNF alpha production upon stimulation of whole blood cultures with LPS. In kind it is cell-based. To be noted: human whole blood (buffy coat) culture, 100 ng/ml LPS, 4 hours; read-out: h TNFα IC50. The method in brief: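 Human buffy coat, diluted with 7 volumes of RPMI/2.5% heat-inactivated FBS, was preincubated with compound (8-point 1:3 series) for 1 h at 37 °C. It was then stimulated with 100 ng/ml LPS (final) for 4 h. Supernatant TNF-α was measured by sandwich ELISA at 450 nm, and IC50 was set between DMSO (0%) and PDE4-inhibitor (100%) controls.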

For experiment [6], the target named is T4, PDE4D: catalytic domain S316-V692 (Homo sapiens, UniProt Q08499).
T4 construct: pET15S PDE4D S316-V692-X; His6 (N, cleaved yes); thrombin cleavage site (N, cleaved yes); made in house; host or cells: E. coli BL21 (DE3) RIL
T4 sequence (Q08499 380-756): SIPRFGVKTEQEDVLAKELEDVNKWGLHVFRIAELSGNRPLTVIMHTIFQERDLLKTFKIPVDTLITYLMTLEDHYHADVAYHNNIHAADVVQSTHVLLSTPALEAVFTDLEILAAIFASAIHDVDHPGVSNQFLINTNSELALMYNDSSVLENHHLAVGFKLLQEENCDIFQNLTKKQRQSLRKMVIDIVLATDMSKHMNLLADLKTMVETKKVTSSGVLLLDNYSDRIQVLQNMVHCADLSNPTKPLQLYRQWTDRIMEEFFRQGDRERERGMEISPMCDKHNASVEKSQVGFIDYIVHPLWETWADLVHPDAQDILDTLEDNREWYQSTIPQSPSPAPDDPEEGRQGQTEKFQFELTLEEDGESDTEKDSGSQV
Kind of experiment: PDE4 IC50 determination by Scintillation Proximity Assay (SPA), PDE4D catalytic domain. The note with it: [3H]cAMP SPA, 30 min at 30° C. Type of experiment: biochemical. Here is the method:
IC50s were determined by Scintillation Proximity Assay (SPA). The principle of the assay is based on the fact that cAMP, the PDE4 substrate, binds weakly to Yittrium Silicate SPA beads, whereas AMP, the product of PDE4 hydrolysis binds strongly. Thus, the extent of PDE4 hydrolysis of a sample of [^3H]cAMP can be measured because only the [^3H]AMP produced by PDE4 hydrolysis will bind to the SPA beads and produce a scintillation signal.
[…] Enzyme was stored in 50% glycerol at −20°. See Example 144.
Compounds tested (see Tables 5 for compounds and results) were 3-fold serially diluted 11 times in DMSO from a starting concentration of 4 mM or 40 μM, depending on compound potency. 1 μl of each dilution was transferred into duplicate wells of a white polystyrene 384-well assay plate (Corning #3710). In addition to the compound dilutions, each assay plate contained control wells with 1 μl of DMSO (to define 0% enzyme inhibition) or 1 μl of 200 μM roflumilast (to define 100% enzyme inhibition). Using a Beckman FX robot, 10 μl of [^3H] cAMP (Amersham TRK559) at […] in assay buffer (50 mM Tris, pH 7.5; 8.3 mM MgCl; 1.7 mM EGTA; 0.01% BSA) was transferred to each assay well. Next, 10 μl of PDE4 enzyme in assay buffer was added and the plates were shaken for 30 s. at 1000 rpm to start the cAMP hydrolysis reaction. The concentrations of enzyme used were: PDE4B, 80 ng/ml; PDE4D, 4 ng/ml; PDE4B2, 2.5 μl of 50% glycerol stock/ml; PDE4D5 0.083 μl of 50% glycerol stock/ml. Assay plates were covered and incubated for 30 min. at 30° C. Reactions were stopped by robotic addition of 10 μl of 5 mg/ml SPA beads (Amersham RPNQ0013) in 18 mM ZnSO4. The assay plates were covered with clear plastic film, centrifuged for 1 min. at 1000 RPM to settle the SPA beads, and counted using a Wallac TriLux scintillation counter. IC50's were calculated from the raw assay data by non-linear regression curve fitting using the Assay Explorer software package from MDL.
(In general: In a scintillation proximity assay essentially only radioactivity close to the scintillant gives light.)

T1 sequence (Q07343 with tags, fused parts or gaps isoform Q07343-2): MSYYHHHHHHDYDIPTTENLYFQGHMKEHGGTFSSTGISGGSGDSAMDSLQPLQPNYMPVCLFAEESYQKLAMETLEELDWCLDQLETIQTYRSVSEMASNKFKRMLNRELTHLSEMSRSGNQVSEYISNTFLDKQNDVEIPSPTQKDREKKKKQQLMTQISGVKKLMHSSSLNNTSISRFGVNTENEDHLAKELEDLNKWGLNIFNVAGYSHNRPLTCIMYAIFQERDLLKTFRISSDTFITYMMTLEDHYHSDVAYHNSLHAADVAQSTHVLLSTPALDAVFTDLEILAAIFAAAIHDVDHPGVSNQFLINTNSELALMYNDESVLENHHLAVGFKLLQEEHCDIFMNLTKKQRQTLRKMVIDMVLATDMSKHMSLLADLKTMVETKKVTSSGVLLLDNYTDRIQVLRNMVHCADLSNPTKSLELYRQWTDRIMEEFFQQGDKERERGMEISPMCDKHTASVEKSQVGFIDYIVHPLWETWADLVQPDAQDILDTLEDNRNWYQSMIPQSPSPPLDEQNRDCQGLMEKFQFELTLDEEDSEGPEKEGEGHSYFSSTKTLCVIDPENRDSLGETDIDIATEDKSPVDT

Broadly, the IC50 is the point on the concentration scale where inhibition reaches its midpoint. In the case of `COc1ccc(-c2cn(C(=O)c3c(OCC(F)(F)F)ccc4ccccc34)c3ncccc23)cc1OC` [Compound 112, [3-(3,4-Dimethoxy-phenyl)-pyrrolo[2,3-b]pyridin-1-yl]-[2-(2,2,2-trifluoro-ethoxy)-naphthalen-1-yl]-methanone], the IC50 in experiment [1] and in experiment [2] was less than 10 µM each time. Moreover, the inhibition in vivo at 3 mg/kg in experiment [3] (3 mg/kg po) was not below 20%.
With `COc1ccc(-c2cn(S(=O)(=O)c3cccc4cccnc34)c3ncccc23)cc1OC` [Compound 7, 8-[3-(3,4-dimethoxy-phenyl)-pyrrolo[2,3-b]pyridine-1-sulfonyl]-quinoline], the IC50 in experiment [4] is less than 10 µM; in experiment [1], less than 10 µM; in experiment [2], less than 10 µM; in experiment [5], not above 10 µM. Further, the inhibition in vivo at 50 mg/kg in experiment [3] (50 mg/kg po or ip) is not below 20%.
As to `CCOc1ccc2ccccc2c1C(=O)n1ccc2c(-c3ccc(OC)c(OC)c3)ccnc21` [Compound 48, [4-(3,4-Dimethoxy-phenyl)-pyrrolo[2,3-b]pyridin-1-yl]-(2-ethoxy-naphthalen-1-yl)-methanone], the IC50 in experiment [4] was less than 10 µM; in experiment [1], less than 10 µM; in experiment [2] it was less than 10 µM; in experiment [5], not above 10 µM. Moreover, in experiment [3], the inhibition in vivo at 5 mg/kg was not below 20%.
Consider `COc1ccc(-c2cn(C(=O)c3csc4ccccc34)c3ncccc23)cc1OC` [Compound 63, Benzo[b]thiophen-3-yl-[3-(3,4-dimethoxy-phenyl)-pyrrolo[2,3-b]pyridin-1-yl]-methanone], for which the IC50 is less than 10 µM in experiment [4]; less than 10 µM in experiment [1]; not above 10 µM in experiment [6]; less than 10 µM in experiment [2]; not above 10 µM in experiment [5].
As for `COc1ccc(-c2cn(C(=O)Nc3ccc4c(c3)OCO4)c3ncccc23)cc1OC` [Compound 36, 3-(3,4-Dimethoxy-phenyl)-pyrrolo[2,3-b]pyridine-1-carboxylic acidbenzo[1,3]dioxol-5-ylamide], the half-maximal inhibitory concentration (IC50) was less than 10 µM in experiment [4]; less than 10 µM in experiment [1]; not above 10 µM in experiment [6]; less than 10 µM in experiment [2]; more than 10 µM in experiment [5].
As to `CCOc1ccccc1C(=O)n1ccc2cc(-c3ccc(OC)c(OC)c3)cnc21` [Compound 83, [5-(3,4-Dimethoxy-phenyl)-pyrrolo[2,3-b]pyridin-1-yl]-(2-ethoxy-phenyl)-methanone], the IC50 is less than 10 µM in experiment [4], less than 10 µM in experiment [1], less than 10 µM in experiment [2] and not above 10 µM in experiment [5]. In experiment [3], the inhibition in vivo at 5 mg/kg was not below 20%.
Take `COc1ccc(-c2cn(S(=O)(=O)c3cccc4cccnc34)c3ncccc23)cc1OC1CCCC1` [Compound 102, 8-[3-(3-Cyclopentyloxy-4-methoxy-phenyl)-pyrrolo[2,3-b]pyridine-1-sulfonyl]-quinoline]: the 50% inhibitory concentration (IC50) in experiment [4] was less than 10 µM; in experiment [1], less than 10 µM; in experiment [6] it was not above 10 µM; in experiment [2], less than 10 µM; in experiment [5], not above 10 µM.
Consider `COc1ccc(-c2cn(C(=O)c3ccnc4ccccc34)c3ncccc23)cc1OC` [Compound 115, [3-(3,4-Dimethoxy-phenyl)-pyrrolo[2,3-b]pyridin-1-yl]-quinolin-4-yl-methanone], for which the IC50 in experiment [4] is less than 10 µM; in experiment [1], less than 10 µM; in experiment [6], not above 10 µM; in experiment [2] it was less than 10 µM; in experiment [5], not above 10 µM.
As to `COc1ccc(-c2cn(C(=O)c3cccnc3)c3ncccc23)cc1OC` [Compound 56, [3-(3,4-Dimethoxy-phenyl)-pyrrolo[2,3-b]pyridin-1-yl]-(3-pyridylyl)-methanone-amide], the 50% inhibitory concentration (IC50) in experiment [4] is less than 10 µM; in experiment [1] it was less than 10 µM; in experiment [6] it was not above 10 µM; in experiment [2] it was less than 10 µM; in experiment [5] it was not above 10 µM.
Regarding `COc1ccc(-c2cn(C(=O)Nc3ccc(F)c([N+](=O)[O-])c3)c3ncccc23)cc1OC` [Compound 31, 3-(3,4-Dimethoxy-phenyl)-pyrrolo[2,3-b]pyridine-1-carboxylic acid (4-fluoro-3-nitro-phenyl)-amide], the IC50 is less than 10 µM in experiment [4]; less than 10 µM in experiment [1]; not above 10 µM in experiment [6]; less than 10 µM in experiment [2]; not above 10 µM in experiment [5].
Turning to `COc1cccc(NC(=S)n2cc(-c3ccc(OC)c(OC)c3)c3cccnc32)c1` [Compound 42, 3-(3,4-dimethoxy-phenyl)-pyrrolo[2,3-b]pyridine-1-carbothioic acid (3-methoxy-phenyl)-amide], the concentration for half-maximal inhibition (IC50) in experiment [4] was less than 10 µM; in experiment [1], less than 10 µM; in experiment [6] it was not above 10 µM; in experiment [2], less than 10 µM; in experiment [5], more than 10 µM.
`COc1ccc(-c2cn(C(=O)c3cc(C)nc4ccccc34)c3ncccc23)cc1OC` [Compound 116, [3-(3,4-Dimethoxy-phenyl)-pyrrolo[2,3-b]pyridin-1-yl]-(2-methyl-quinolin-4-yl)-methanone]: the IC50 is less than 10 µM in experiment [4]; less than 10 µM in experiment [1]; not above 10 µM in experiment [6]; less than 10 µM in experiment [2]; not above 10 µM in experiment [5].
Take `COc1cccc(NC(=O)n2cc(-c3ccc(OC)c(OC)c3)c3cccnc32)c1` [Compound 32, 3-(3,4-Dimethoxy-phenyl)-pyrrolo[2,3-b]pyridine-1-carboxylic acid (3-methoxy-phenyl)-amide]: the 50% inhibitory concentration (IC50) in experiment [4] was less than 10 µM; in experiment [1], less than 10 µM; in experiment [6], not above 10 µM; in experiment [2] it was less than 10 µM; in experiment [5], more than 10 µM.
